Results from BindingDB's records for doi:10.1021/jm00381a005 (1985).

Assay: Inhibitory activity against thromboxane B2 formation (TXA2 synthase) by incubating prostaglandin H2 (PGH-2) with horse platelet microsomes

IC50 | SMILES
62 nM | O=C(O)CCCC/C=C(/c1cccnc1)c1ccsc1 [(Z)-7-Pyridin-3-yl-7-thiophen-3-yl-hept-6-enoic acid]
180 nM | O=C(O)CCCC/C=C(\c1cccnc1)c1cccc(Br)c1 [7-(3-Bromo-phenyl)-7-pyridin-3-yl-hept-6-enoic acid]
38 nM | CC(C)(CCCC/C=C(/c1ccccc1)c1cccnc1)C(=O)O [2,2-Dimethyl-8-phenyl-8-pyridin-3-yl-oct-7-enoic acid]
73 nM | O=C(O)CCCC/C=C(\c1cccnc1)c1cccc([N+](=O)[O-])c1 [7-(3-Nitro-phenyl)-7-pyridin-3-yl-hept-6-enoic acid]
100 nM | COC(=O)CCCC/C=C(\c1ccccc1)c1cccnc1 [7-Phenyl-7-pyridin-3-yl-hept-6-enoic acid methyl ester]
54 nM | O=C(O)CCCC/C=C(/c1cccnc1)c1cccs1 [(Z)-7-Pyridin-3-yl-7-thiophen-2-yl-hept-6-enoic acid]
33 nM | O=C(O)C(CCC/C=C(\c1ccccc1)c1cccnc1)Sc1ccccc1 (configuration not stated) [7-Phenyl-2-phenylsulfanyl-7-pyridin-3-yl-hept-6-enoic acid]
250 nM | O=C(O)CCCC/C=C\c1cccnc1 [7-Pyridin-3-yl-hept-6-enoic acid]
31 nM | O=C(O)CCCC/C=C(\c1cccnc1)c1ccsc1 [7-Pyridin-3-yl-7-thiophen-3-yl-hept-6-enoic acid]
> 100000 nM | O=C(O)CCCC/C=C(/c1ccccc1)c1ccccn1 [7-Phenyl-7-pyridin-2-yl-hept-6-enoic acid]
55 nM | O=C(O)CCCC/C=C(\c1cccnc1)c1cccc(F)c1 [7-(3-Fluoro-phenyl)-7-pyridin-3-yl-hept-6-enoic acid]
280 nM | O=C(O)CCC/C=C(/c1ccccc1)c1cccnc1 [6-Phenyl-6-pyridin-3-yl-hex-5-enoic acid]
32 nM | O=C(O)C(CCC/C=C(\c1cccnc1)c1cccs1)c1ccccc1 (configuration not stated) [2-Phenyl-7-pyridin-3-yl-7-thiophen-2-yl-hept-6-enoic acid]
85 nM | Cc1ccc(/C(=C/CCCCC(=O)O)c2cccnc2)cc1 [7-Pyridin-3-yl-7-p-tolyl-hept-6-enoic acid]

The remaining lines, values behind:

SMILES | IC50
O=C(O)CCCC/C=C(/c1ccc(Br)cc1)c1cccnc1 [7-(4-Bromo-phenyl)-7-pyridin-3-yl-hept-6-enoic acid] | 82 nM
O=C(O)C(CCC/C=C(\c1ccccc1)c1cccnc1)C1=CCCC1 (configuration not stated) [2-Cyclopent-1-enyl-7-phenyl-7-pyridin-3-yl-hept-6-enoic acid] | 60 nM
COc1ccc(/C(=C/CCCCC(=O)O)c2cccnc2)cc1 [7-(4-Methoxy-phenyl)-7-pyridin-3-yl-hept-6-enoic acid] | 80 nM
Cc1ccsc1/C(=C/CCCCC(=O)O)c1cccnc1 [7-(3-Methyl-thiophen-2-yl)-7-pyridin-3-yl-hept-6-enoic acid] | 29 nM
O=C(O)CCCC/C=C(\c1cccnc1)c1cccs1 [7-Pyridin-3-yl-7-thiophen-2-yl-hept-6-enoic acid] | 20 nM
CC(C)(O)C(CCC/C=C(\c1ccccc1)c1cccnc1)C(=O)O (configuration not stated) [2-(1-Hydroxy-1-methyl-ethyl)-7-phenyl-7-pyridin-3-yl-hept-6-enoic acid] | 42 nM
O=C(O)CCCC/C=C(\c1ccccc1)c1ccc[n+]([O-])c1 [7-(1-Oxy-pyridin-3-yl)-7-phenyl-hept-6-enoic acid] | > 10000 nM
O=C(O)CCCCCC(c1ccccc1)c1cccnc1 (configuration not stated) [7-Phenyl-7-pyridin-3-yl-heptanoic acid] | 2700 nM
O=C(O)CCCCCCCCC/C=C(\c1ccccc1)c1cccnc1 [12-Phenyl-12-pyridin-3-yl-dodec-11-enoic acid] | 55 nM
O=C(O)CCCC/C=C(\c1cccnc1)c1ccccc1Br [7-(2-Bromo-phenyl)-7-pyridin-3-yl-hept-6-enoic acid] | 130 nM
O=C(O)CCCC/C=C(/c1ccc(F)cc1)c1cccnc1 [7-(4-Fluoro-phenyl)-7-pyridin-3-yl-hept-6-enoic acid] | 83 nM
C=C(C)C(CCC/C=C(\c1ccccc1)c1cccnc1)C(=O)O (configuration not stated) [2-Isopropenyl-7-phenyl-7-pyridin-3-yl-hept-6-enoic acid] | 28 nM
O=C(O)C(CCC/C=C(/c1cccnc1)c1cccs1)c1ccccc1 (configuration not stated) [2-Phenyl-7-pyridin-3-yl-7-thiophen-2-yl-hept-6-enoic acid] | 50 nM
CSC(CCC/C=C(\c1ccccc1)c1cccnc1)C(=O)O (configuration not stated) [2-Methylsulfanyl-7-phenyl-7-pyridin-3-yl-hept-6-enoic acid] | 30 nM
NC(=O)CCCC/C=C(\c1ccccc1)c1cccnc1 [7-Phenyl-7-pyridin-3-yl-hept-6-enoic acid amide] | 400 nM
O=C(O)CCCCCCCCC/C=C(/c1ccccc1)c1cccnc1 [12-Phenyl-12-pyridin-3-yl-dodec-11-enoic acid] | 520 nM
O=C(O)CCCC/C=C(/CCCc1ccccc1)c1cccnc1 [10-Phenyl-7-pyridin-3-yl-dec-6-enoic acid] | 65 nM
COCC(CCC/C=C(\c1ccccc1)c1cccnc1)C(=O)O (configuration not stated) [2-Methoxymethyl-7-phenyl-7-pyridin-3-yl-hept-6-enoic acid] | 41 nM
O=C(O)CCC/C=C(\c1ccccc1)c1cccnc1 [6-Phenyl-6-pyridin-3-yl-hex-5-enoic acid] | 30 nM
CC(C)(CCC/C=C(/c1ccccc1)c1cccnc1)C(=O)O [2,2-Dimethyl-7-phenyl-7-pyridin-3-yl-hept-6-enoic acid] | 30 nM
O=C(O)C(CCC/C=C(\c1ccccc1)c1cccnc1)C1(O)CCCC1 (configuration not stated) [2-(1-Hydroxy-cyclopentyl)-7-phenyl-7-pyridin-3-yl-hept-6-enoic acid] | 65 nM
CC(C)(CCCC/C=C(\c1ccccc1)c1cccnc1)C(=O)O [2,2-Dimethyl-8-phenyl-8-pyridin-3-yl-oct-7-enoic acid] | 45 nM
CC(C)(CCC/C=C(\c1ccccc1)c1cccnc1)C(=O)O [2,2-Dimethyl-7-phenyl-7-pyridin-3-yl-hept-6-enoic acid] | 21 nM
C/C(=C\CCCCC(=O)O)c1cccnc1 [(Z)-7-Pyridin-3-yl-oct-6-enoic acid] | 210 nM
CC(C)CSC(CCC/C=C(\c1ccccc1)c1cccnc1)C(=O)O (configuration not stated) [2-Isobutylsulfanyl-7-phenyl-7-pyridin-3-yl-hept-6-enoic acid] | 110 nM
C=CCC(CCC/C=C(\c1ccccc1)c1cccnc1)C(=O)O (configuration not stated) [2-Allyl-7-phenyl-7-pyridin-3-yl-hept-6-enoic acid] | 50 nM
CCOC(=O)CCCC/C=C(\c1ccccc1)c1cccnc1 [7-Phenyl-7-pyridin-3-yl-hept-6-enoic acid ethyl ester] | 600 nM
C/C(=C/CCCCC(=O)O)c1cccnc1 [7-Pyridin-3-yl-oct-6-enoic acid] | 71 nM
